From US20050013835A1, “Stable non-dihydrate azithromycin oral suspensions” (Pfizer Inc., priority 2003, published 2005)
Read-outs that look alike come from different tables or passages of the source. One block for each compound: values may come before it.

Legend:
[1] = Stability of non-dihydrate azithromycin in constituted suspension: conversion to dihydrate (form A) quantified by SS-NMR; type: physicochemical; conditions: for rate of conversion to azithromycin dihydrate in POS formulation II suspension as compared to bulk drug suspended in deionized water: 5° C. or 30° C., 1 to 10 days
Experimental: These POS formulations were created by individually weighing each formulation component into a 60-cc High Density Polyethylene (HDPE) bottle with closure. The resulting formulations were then dry-mixed with a Turbula blender (Glen Mills Inc. Maywood, N.J.) for 5 minutes. The powder blends were then constituted with 18 mls of water, shaken for 30 seconds and stored without agitation under controlled temperature conditions.
Upon conclusion of the storage time period the suspensions were filtered and suspended solids collected as described previously.

[2] = Effect of sucrose vehicle viscosity on conversion in flavoring-free form G suspensions (SS-NMR); type: physicochemical; conditions: 820 mg form G, no flavoring, room temperature
Experimental: (§1) Upon conclusion of the storage time period the POS samples were filtered using a Buchner funnel in combination with a standard vacuum filtration apparatus. A Millipore prefilter (AP25, 47 mm) was fitted onto the funnel for the collection of suspended solids. Before filtering, the constituted POS sample was poured into a 200 ml volumetric flask and diluted to 200 ml with water. This lowered the viscosity of the sample, facilitating a quick filtration step. With the vacuum on, the diluted POS samples were poured onto the Millipore prefilter. The isolated filtrate remaining on top of the prefilter was then allowed to stand for 2-minutes in order to dry. Vacuum was applied to the filtration apparatus during this drying step. Suspensions containing only bulk drug were transferred directly onto the filter paper upon completion of storage, without the described dilution step during sample preparation. After drying, the collected filtrate was placed into 4 cc Sunbroker vials and analyzed via Solid-State Nuclear Magnetic Resonance (SS-NMR) for quantification of conversion to azithromycin dihydrate (form A).
(§2) Approximately 300 mg of sample were tightly packed into a 7 mm ZrO spinner for each sample analyzed. One-dimensional ^13C spectra were collected at ambient pressure using ^1H-^13C cross-polarization magic angle spinning (CPMAS) at 295 K on a Bruker 7 mm BL CPMAS probe positioned into a wide-bore Bruker Avance DSX 500 MHz NMR spectrometer (Bruker BioSpin Corporation; Billerica, Mass.). The samples were spun at 7000 Hz corresponding to the maximum specified spinning speed for the 7 mm spinners. The fast spinning speed minimized the intensities of the spinning side bands. To optimize the signal sensitivity, the cross-polarization contact time was adjusted to 2.3 ms and the decoupling power was set to 65 kHz. Typically, a total of 600 scans were acquired, resulting in approximately a 30 minute acquisition time. The spectra were referenced using an external sample of adamantane with its most upfield resonance set to 29.5 ppm.
(§3) Eight pairs of resolved peaks were identified to calibrate ratios of form A in the presence of form G, N, M or F. Integral intensities of all peaks were used as input for the calibration procedure using five different binary mixtures ranging from 3 to 81% of form A with each non-dihydrate form. From this, one non-linear calibration graph was generated for each pair of peaks and each form. For the experimental samples, only the peaks that were totally void from excipient overlap were preferentially integrated. The unknown percentages of form A were then determined from the appropriate calibration graphs. The final result for each sample analyzed was calculated as a weighted average of the determinations from each resolved peak pair.
(§4) Viscosifying agents were incorporated into POS formulations in the absence of conversion enhancers, such as flavoring components. Specifically, a series of viscous media was prepared by dissolving various amounts of either sucrose or sorbitol in a 0.22 M phosphate buffer solution. Each solution was then adjusted with sodium hydroxide to bring the mixture to a pH of 7.8. The viscosity of each constitution media was measured using a Brookfield digital viscometer (model DV-II) equipped with a 13R sample chamber and #18 spindle. A heating jacket was also used to maintain the 8 ml sample volume to a temperature of 21° C. during measurements. 18 mls of each viscous media were then used to constitute 820 mg of form G azithromycin. The resulting suspensions were stored at room temperature for both 5 and 10-days. Upon conclusion of the storage time period the constituted samples were filtered and analyzed by SS-NMR for quantitation of dihydrate species present.

[3] = Effect of sorbitol vehicle viscosity on conversion in flavoring-free form G suspensions (SS-NMR); type: physicochemical; conditions: 820 mg form G, no flavoring, room temperature
Experimental: as §1, §2, §3, §4

[4] = Addition of polymeric and surfactant components to slow form M conversion in formulation II (SS-NMR); type: physicochemical; conditions: additive level 1 % w/v, 18 ml water, 24 hours room temperature
Experimental: as §1, with “Vacuum was applied to the filtration apparatus during this drying step. Suspensions containing only bulk drug were transferred directly onto the filter paper upon completion of storage, without the described dilution step during sample preparation.” left out
(§5) Approximately 300 mg of sample were tightly packed into a 7 mm ZrO spinner for each sample analyzed. […]
(§6) Eight pairs of resolved peaks were identified to calibrate ratios of form A in the presence of form G, N, M or F. Integral intensities of all peaks were used as input for the calibration procedure using five different binary mixtures ranging from 3 to 81% of form A with each non-dihydrate form. […] The unknown percentages of form A were then determined from the appropriate calibration graphs. […]

[5] = Literature value (Johnson, Kreuter and Zografi, Colloids and Surfaces 17 (1986) 325-342); cited from earlier work
[6] = Addition of polymeric and surfactant components to slow form F conversion in formulation II (SS-NMR); type: physicochemical; conditions: additive level 1 % w/v, 18 ml water, 24 hours room temperature
Experimental: as §1, with “Vacuum was applied to the filtration apparatus during this drying step. Suspensions containing only bulk drug were transferred directly onto the filter paper upon completion of storage, without the described dilution step during sample preparation.” left out
as §5, §6

[7] = Surface tension of aqueous additive solution (Wilhelmy plate or literature); type: physicochemical; conditions: aqueous solution at the concentration used in the suspension (1 % w/v), Kruss Tensiometer, Wilhemy plate, room temperature
[8] = Effect of individual flavorings and sucrose on conversion of form G to form A in pH 8.16 buffer (SS-NMR); type: physicochemical; conditions: 820 mg form G + 200 mg flavoring or sucrose, 18 ml pH 8.16 buffer, room temperature
[9] = Bulk drug in 18 ml water, 5° C., day 1
[10] = Bulk drug in 18 ml water, 5° C., day 10
[11] = Bulk drug in 18 ml water, 30° C., day 1
[12] = Bulk drug in 18 ml water, 30° C., day 10
[13] = Formulation II constituted with 18 ml water, 5° C., day 1
[14] = Formulation II constituted with 18 ml water, 5° C., day 10
[15] = Formulation II constituted with 18 ml water, 30° C., day 1
[16] = Formulation II constituted with 18 ml water, 30° C., day 10
[17] = 18 ml 0.0 mg/ml sucrose solution pH 7.8, viscosity 1.2 cP
[18] = 18 ml 0.8 mg/ml sucrose solution pH 7.8, viscosity 10.2 cP
[19] = 18 ml 1.1 mg/ml sucrose solution pH 7.8, viscosity 20.2 cP
[20] = 18 ml 1.4 mg/ml sucrose solution pH 7.8, viscosity 41.7 cP
[21] = 18 ml 1.8 mg/ml sucrose solution pH 7.8, viscosity 105.0 cP
[22] = 18 ml 0.0 mg/ml sorbitol solution pH 7.8, viscosity ˜1 cP
[23] = 18 ml 1.02 mg/ml sorbitol solution pH 7.8, viscosity 3.4 cP
[24] = 18 ml 1.54 mg/ml sorbitol solution pH 7.8, viscosity 21.0 cP
[25] = 18 ml 2.04 mg/ml sorbitol solution pH 7.8, viscosity 130.9 cP
[26] = Bulk drug in 18 ml water, 5° C., day 5
[27] = Bulk drug in 18 ml water, 30° C., day 5
[28] = Formulation II constituted with 18 ml water, 5° C., day 5
[29] = Formulation II constituted with 18 ml water, 30° C., day 5

rate of conversion to azithromycin dihydrate in POS formulation II suspension as compared to bulk drug suspended in deionized water [1]: much greater rates
% A [1, 9]: 0%
% A [1, 10]: 0%
% A [1, 11]: 0%
% A [1, 12]: 0%
% A [1, 13]: 6%
% A [1, 14]: 27%
% A [1, 15]: 19%
% A [1, 16]: 31%
SMILES: CCC1OC(=O)C(C)C(O[C@H]2C[C@@](C)(OC)[C@@H](O)C(C)O2)C(C)[C@@H](OC2OC(C)CC(N(C)C)[C@H]2O)[C@@](C)(O)C[C@@H](C)CN(C)[C@H](C)[C@@H](O)[C@]1(C)O (some centres unmarked) [Form F, azithromycin monohydrate hemi-ethanol solvate]

5-day Storage (% Form A) [2, 17]: 20%
10-day Storage (% Form A) [2, 17]: 55%
5-day Storage (% Form A) [2, 18]: 5%
10-day Storage (% Form A) [2, 18]: 12%
5-day Storage (% Form A) [2, 19]: 5%
10-day Storage (% Form A) [2, 19]: 6%
5-day Storage (% Form A) [2, 20]: 1%
10-day Storage (% Form A) [2, 20]: 3%
5-day Storage (% Form A) [2, 21]: 0%
10-day Storage (% Form A) [2, 21]: 0%
5-day Storage (% Form A) [3, 22]: 35%
10-day Storage (% Form A) [3, 22]: 100%
5-day Storage (% Form A) [3, 23]: 7%
10-day Storage (% Form A) [3, 23]: 7%
5-day Storage (% Form A) [3, 24]: 0%
10-day Storage (% Form A) [3, 24]: 0%
5-day Storage (% Form A) [3, 25]: 0%
10-day Storage (% Form A) [3, 25]: 0%
rate of conversion to azithromycin dihydrate in POS formulation II suspension as compared to bulk drug suspended in deionized water [1]: much greater rates
% A [1, 9]: 1%
% A [1, 26]: 6%
% A [1, 10]: 12%
% A [1, 11]: 3%
% A [1, 27]: 26%
% A [1, 12]: 73%
% A [1, 13]: 72%
% A [1, 28]: 75%
% A [1, 14]: 78%
% A [1, 15]: 82%
% A [1, 29]: 74%
% A [1, 16]: 76%
SMILES: CC[C@H]1OC(=O)[C@H](C)[C@@H](O[C@H]2C[C@@](C)(OC)[C@@H](O)[C@H](C)O2)[C@H](C)[C@@H](O[C@@H]2O[C@H](C)C[C@H](N(C)C)[C@H]2O)[C@](C)(O)C[C@@H](C)CN(C)[C@H](C)[C@@H](O)[C@]1(C)O [Form G, azithromycin sesquihydrate]

% A [1, 13]: 0%
% A [1, 14]: 0%
% A [1, 15]: 0%
% A [1, 16]: 0%
SMILES: CCC1OC(=O)C(C)C(O[C@H]2C[C@@](C)(OC)[C@@H](O)C(C)O2)C(C)[C@@H](OC2OC(C)CC(N(C)C)[C@H]2O)[C@@](C)(O)C[C@@H](C)CN(C)[C@H](C)[C@@H](O)[C@]1(C)O (some centres unmarked) [Form J, azithromycin monohydrate hemi-n-propanol solvate]
rate of conversion to azithromycin dihydrate in POS formulation II suspension as compared to bulk drug suspended in deionized water [1]: did not exhibit a greater conversion rate

rate of conversion to azithromycin dihydrate in POS formulation II suspension as compared to bulk drug suspended in deionized water [1]: much greater rates
% A [1, 9]: 0%
% A [1, 26]: 0%
% A [1, 10]: 0%
% A [1, 11]: 0%
% A [1, 27]: 0%
% A [1, 12]: 0%
% A [1, 13]: 23%
% A [1, 28]: 38%
% A [1, 14]: 40%
% A [1, 15]: 28%
% A [1, 29]: 36%
% A [1, 16]: 62%
SMILES: CCC1OC(=O)C(C)C(O[C@H]2C[C@@](C)(OC)[C@@H](O)C(C)O2)C(C)[C@@H](OC2OC(C)CC(N(C)C)[C@H]2O)[C@@](C)(O)C[C@@H](C)CN(C)[C@H](C)[C@@H](O)[C@]1(C)O (some centres unmarked) [Form M, azithromycin monohydrate hemi-isopropanol solvate]

SMILES: CCCCCCCCOC(=O)CC(C(=O)OCCCCCCCC)S(=O)(=O)O.[Na] (centres unmarked) [Sodium Dioctyl Sulfosuccinate]
% Conversion to Form A Relative to the Control Sample [4]: 0%
Surface Tension [5]: 25.6^1 dyne/cm
% Conversion to Form A Relative to the Control Sample [6]: 0%

SMILES: CCCCCCCCCCCCOS(=O)(=O)[O-].[Na+] [Sodium Lauryl Sulfate]
Surface Tension [7]: 35.8^2 dyne/cm
% Conversion to Form A Relative to the Control Sample [4]: 0%
% Conversion to Form A Relative to the Control Sample [6]: 0%

Δ % Form A ([8]; constituted 1 day): 2%
Δ % Form A ([8]; constituted 5 days): 1%
Δ % Form A ([8]; constituted 10 days): 6%
Δ % Form A ([8]; constituted 10 days, listed as sucrose): only minimal conversion to form A
SMILES: OC[C@H]1O[C@@](CO)(O[C@H]2O[C@H](CO)[C@@H](O)[C@H](O)[C@H]2O)[C@@H](O)[C@@H]1O [Sucrose]
